This is an account of results in US20170158702A1, “MULTIVALENT RAS BINDING COMPOUNDS” (KYRAS THERAPEUTICS, INC., priority 2015, published 2017).

Counter-ions that a name gives are not always drawn.

One assay deals with NCI-H460. Kind of assay: Viability assay with NCI-H460 (CellTiter-Glo cytotoxicity assay, 72 h). The assay is classed as cell-based. To be noted: NCI-H460 cell line, 72 h after compounds addition. The procedure:
(§1) NCI-H460 (Epithelial lung tissue; carcinoma; large cell lung cancer) were cultured in RPMI Medium 1640 (Invitrogen-22400105) supplemented with 10% fetal bovine serum (FBS; Invitrogen-10099141). All the cell lines were maintained in a humidified incubator at 37° C. with 5% CO2. Cell culture media and supplements were purchased from Invitrogen, and tissue culture flasks were purchased from Corning, 96-well plates were purchased from Greiner. CellTiter-Glo Luminescent Cell Viability Assay kits were purchased from Promega (Promega-G7573), cells counter Vi-Cell was purchased from Beckman, D300e digital dispenser was purchased from Tecan, detection instrument Envision was purchased from PerkinElmer.
(§2) Paclitaxel was purchased from SELLECK, test compounds, such as any one of the compounds disclosed herein, attained solubility in DMSO and when diluted into culture media. DMSO, solutions containing the test compounds, and culture media were warmed to 37° C. or room temperature for the solution preparation and dilutions.
(§3) NCI-H460 Cell line were seeded in 96-well plates (1200/well) and allowed to adhere to overnight (100 uL/well), for drug treatments with 2 fold dilution, 9 dose points, triplicates or vehicle control, compound stock solutions were prepared in DMSO and use D300e digital dispenser to add compounds to the wells to give the indicated final drug concentrations. Final DMSO concentration was 0.5%. Cellular ATP concentrations were assessed by using the CellTiter-Glo Cell Viability Assay as per the manufacturer's instructions 72 h after compounds addition. Additional cells lines were assayed with any one of the compounds disclosed herein according to the procedures described for the viability assay with NCI-H460.
(Cellular ATP, detected with luciferase, serves as a proxy for viable cell number.)

Another assay has as its system MIA PaCa-2. Nature of the assay: Viability assay with MIA PaCa-2. The assay is classed as cell-based. Particulars: MIA PaCa-2, viability assay per Example 57. The procedure:
as §1, §2, §3
A viability assay with MIA PaCa-2 (Epithelial pancreas tissue; carcinoma) was performed with compounds listed in Table 15, according to the procedures described in Example 57.

In the case of `CN1CCN(Cc2ccc3c(c2)c(-c2ccc(OC(F)(F)F)cc2)cn3CCCNC(=O)C2(N)CCNCC2)CC1` [C57; HCl], the EC50 in the assay on NCI-H460 and in the assay with MIA PaCa-2 was > 30 µM in each case.

For the molecule `NC1(C(=O)NCCCn2cc(-c3ccc(OC(F)(F)F)cc3)c3cc(CN4CCN(Cc5ccccc5OC(F)(F)F)CC4)ccc32)CCNCC1` [C58; Formic acid], the EC50 in the assay on NCI-H460 and in the assay on MIA PaCa-2 was ≤ 5 µM each time.

As to `COc1ccccc1CN1CCN(Cc2ccc3c(c2)c(-c2ccc(OC(F)(F)F)cc2)cn3CCCNC(=O)C2(N)CCNCC2)CC1` [C59; Formic acid], the EC50 with NCI-H460 and with MIA PaCa-2 was ≤ 5 µM in each case.

Take `NC1(C(=O)NCCCn2cc(-c3ccc(OC(F)(F)F)cc3)c3cc(CN4CCN(Cc5ccccc5F)CC4)ccc32)CCNCC1` [C60; Formic acid]: the EC50 in the assay on NCI-H460 and in the assay with MIA PaCa-2 was ≤ 5 µM each time.

Consider `NC1(C(=O)NCCCn2cc(-c3ccc(OC(F)(F)F)cc3)c3cc(CN4CCC5(CCN(Cc6c(Cl)cccc6Cl)CC5)C4)ccc32)CCNCC1` [C61; HCl], for which the EC50 with NCI-H460 and in the assay with MIA PaCa-2 was ≤ 5 µM in each case.

Regarding `NC1(C(=O)NCCCn2cc(-c3ccc(OC(F)(F)F)cc3)c3cc(CN4CCN(Cc5ccccc5Cl)CC4)ccc32)CCNCC1` [C62; HCl], the EC50 in the assay on NCI-H460 and in the assay on MIA PaCa-2 was ≤ 5 µM each time.

For `NC1(C(=O)NCCCn2cc(-c3ccc(OC(F)(F)F)cc3)c3cc(CN4CCN(Cc5ccccc5C(F)(F)F)CC4)ccc32)CCNCC1` [C63; HCl], the EC50 with NCI-H460 and in the assay with MIA PaCa-2 was ≤ 5 µM each time.

For the molecule `NC1(C(=O)NCCn2cc(-c3ccc(OC(F)(F)F)cc3)c3cc(CN4CCN(Cc5c(Cl)cccc5Cl)CC4)ccc32)CCNCC1` [C64; HCl], the EC50 in the assay on NCI-H460 and in the assay with MIA PaCa-2 was ≤ 5 µM each time.

On to `NC1(C(=O)NCCCn2cc(-c3ccc(OC(F)(F)F)cc3)c3cc(CN4CC5(CCN(Cc6c(Cl)cccc6Cl)CC5)C4)ccc32)CCNCC1` [C65; HCl], for which the EC50 in the assay on NCI-H460 and with MIA PaCa-2 was ≤ 5 µM in each case.

On to `N#Cc1ccccc1CN1CCN(Cc2ccc3c(c2)c(-c2ccc(OC(F)(F)F)cc2)cn3CCCNC(=O)C2(N)CCNCC2)CC1` [C66; HCl], for which the EC50 in the assay with NCI-H460 and with MIA PaCa-2 was ≤ 5 µM throughout.

As for `NC1(C(=O)NCCCn2cc(-c3ccc(OC(F)(F)F)cc3)c3cc(CN4CCC5(CC4)CCN(Cc4c(Cl)cccc4Cl)CC5)ccc32)CCNCC1` [C67; Formic acid], the EC50 in the assay with NCI-H460 and with MIA PaCa-2 was ≤ 5 µM each time.

Regarding `NC1(C(=O)NCCCn2cc(-c3ccc(OC(F)(F)F)cc3)c3cc(CN4CCCC5(CCN(Cc6c(Cl)cccc6Cl)CC5)C4)ccc32)CCNCC1` [C68; Formic acid], the EC50 with NCI-H460 and with MIA PaCa-2 was ≤ 5 µM in each case.

Regarding `NC1(C(=O)NCCCn2cc(-c3ccc(OC(F)(F)F)cc3)c3cc(CN4CC5CCC4CN5Cc4c(Cl)cccc4Cl)ccc32)CCNCC1` (stereo not shown) [C69; HCl], the EC50 with NCI-H460 and in the assay on MIA PaCa-2 was ≤ 5 µM each time.

On to `NC1(C(=O)NCCCn2cc(-c3ccc(OC(F)(F)F)cc3)c3cc(CN4CC5CN(Cc6c(Cl)cccc6Cl)CC5C4)ccc32)CCNCC1` (stereo not shown) [C70; HCl], for which the EC50 in the assay on NCI-H460 and in the assay with MIA PaCa-2 was ≤ 5 µM each time.

For the molecule `Cc1ccccc1CN1CCN(Cc2ccc3c(c2)c(-c2ccc(OC(F)(F)F)cc2)cn3CCCNC(=O)C2(N)CCNCC2)CC1` [C71; HCl], the EC50 with NCI-H460 and with MIA PaCa-2 was ≤ 5 µM each time.

Regarding `NC1(C(=O)NCCCn2cc(-c3ccc(OC(F)(F)F)cc3)c3cc(CN4CCN(Cc5ccccc5)CC4)ccc32)CCNCC1` [C72; HCl], the EC50 in the assay with NCI-H460 and in the assay on MIA PaCa-2 was ≤ 5 µM each time.

On to `CC(C)(C)OC(=O)N1CCC(N)(C(=O)NCCCc2cn(-c3ccc(OC(F)(F)F)cc3)c3cc(CN4CCN(Cc5c(Cl)cccc5Cl)CC4)ccc23)CC1` [C73; Formic acid], for which the EC50 with NCI-H460 and with MIA PaCa-2 was ≤ 5 µM throughout.

Regarding `O=C(NCCCc1cn(-c2ccc(OC(F)(F)F)cc2)c2cc(CN3CCN(Cc4c(Cl)cccc4Cl)CC3)ccc12)C1CNCCN1` (stereo not shown) [C74; HCl], the EC50 in the assay with NCI-H460 and in the assay with MIA PaCa-2 was ≤ 5 µM throughout.

`NC1(C(=O)NCCCc2cn(-c3ccc(OC(F)(F)F)cc3)c3cc(CN4CCN(Cc5c(Cl)cccc5Cl)CC4)ccc23)CCNCC1` [C75; HCl]: the EC50 with NCI-H460 and with MIA PaCa-2 was ≤ 5 µM in each case.

Turning to `NC1(C(=O)NCCCn2cc(-c3ccc(OC(F)(F)F)cc3)c3cc(CN4CCC5(CC4)CN(Cc4c(Cl)cccc4Cl)C5)ccc32)CCNCC1` [C76; HCl], the EC50 – broadly, the concentration that produces a half-maximal response – with NCI-H460 was 5 to 10 µM; in the assay with MIA PaCa-2 it was ≤ 5 µM.

On to `NC1(C(=O)NCCCn2cc(-c3ccc(OC(F)(F)F)cc3)c3cc(CN4CC5CC4CN5Cc4c(Cl)cccc4Cl)ccc32)CCNCC1` (stereo not shown) [C77; HCl], for which the EC50 in the assay with NCI-H460 and with MIA PaCa-2 was ≤ 5 µM each time.

For the molecule `NC1(C(=O)NCCCn2cc(-c3ccc(OC(F)(F)F)cc3)c3cc(CN4CCCN(Cc5c(Cl)cccc5Cl)CC4)ccc32)CCNCC1` [C78; HCl], the EC50 in the assay on NCI-H460 and with MIA PaCa-2 was ≤ 5 µM in each case.

As for `NC1(C(=O)NCCCn2cc(-c3ccc(OC(F)(F)F)cc3)c3cc(CNC4C5CN(Cc6c(Cl)cccc6Cl)CC54)ccc32)CCNCC1` (stereo not shown) [C79; Formic acid], the EC50 in the assay on NCI-H460 and with MIA PaCa-2 was ≤ 5 µM in each case.

Regarding `NC1(C(=O)NCCCc2cn(-c3ccc(OC(F)(F)F)cc3)c3cc(C(=O)N4CCN(Cc5c(Cl)cccc5Cl)CC4)ccc23)CCNCC1` [C80; HCl], the EC50 in the assay on NCI-H460 and in the assay with MIA PaCa-2 was ≤ 5 µM in each case.

As to `NCC(N)C(=O)NCCCn1cc(-c2ccc(OC(F)(F)F)cc2)c2cc(CN3CCN(Cc4c(Cl)cccc4Cl)CC3)ccc21` (stereo not shown) [C81; HCl], the EC50 with NCI-H460 and in the assay on MIA PaCa-2 was ≤ 5 µM throughout.

Turning to `NC1(C(=O)NCCCn2cc(-c3ccc(OC(F)(F)F)cc3)c3cc(CN4CCN(Cc5c(Cl)cccc5Cl)CC4)ccc32)CCCCC1` [C82; HCl], the EC50 in the assay with NCI-H460 and with MIA PaCa-2 was ≤ 5 µM each time.

As for `NC1(C(=O)NCCCn2cc(-c3ccc(OC(F)(F)F)cc3)c3cc(CN4CC5C(C4)C5NCc4c(Cl)cccc4Cl)ccc32)CCNCC1` (stereo not shown) [C85; HCl], the EC50 with NCI-H460 and in the assay with MIA PaCa-2 was ≤ 5 µM each time.

`NC1(C(=O)NCCCn2cc(-c3ccc(OC(F)(F)F)cc3)c3cc(CN4CC5CCC(C4)N5Cc4c(Cl)cccc4Cl)ccc32)CCNCC1` [C86; Formic acid]: the EC50 with NCI-H460 and in the assay with MIA PaCa-2 was ≤ 5 µM each time.

With `NCCCc1cn(-c2ccc(OC(F)(F)F)cc2)c2cc(CN3CCN(Cc4c(Cl)cccc4Cl)CC3)ccc12` [C87; Formic acid], the EC50 in the assay on NCI-H460 and in the assay on MIA PaCa-2 was ≤ 5 µM throughout.

`CC(C)(C)OC(=O)NCCCc1cn(-c2ccc(OC(F)(F)F)cc2)c2cc(CN3CCN(Cc4c(Cl)cccc4Cl)CC3)ccc12` [C88; Formic acid]: the EC50 in the assay on NCI-H460 and with MIA PaCa-2 was > 30 µM in each case.

For the molecule `COc1ccc(CN2CCNC(C(=O)NCCCn3cc(-c4ccc(OC(F)(F)F)cc4)c4cc(CN5CCN(Cc6c(Cl)cccc6Cl)CC5)ccc43)C2)cc1OCc1ccc(Cl)c(Cl)c1` (stereo not shown) [C89; Formic acid], the EC50 in the assay with NCI-H460 and in the assay on MIA PaCa-2 was 5 to 10 µM in each case.

On to `O=C(NCCCn1cc(-c2ccc(OC(F)(F)F)cc2)c2cc(CN3CCN(Cc4c(Cl)cccc4Cl)CC3)ccc21)C1CNCCN1` (stereo not shown) [C90; HCl], for which the EC50 in the assay with NCI-H460 and with MIA PaCa-2 was ≤ 5 µM each time.

As to `O=C(NCCCn1cc(-c2ccc(OC(F)(F)F)cc2)c2cc(CN3CCN(Cc4c(Cl)cccc4Cl)CC3)ccc21)C1(NCc2cccnc2-c2cccc(Cl)c2)CCNCC1` [C114; HCl], the EC50 in the assay with NCI-H460 and in the assay with MIA PaCa-2 was ≤ 5 µM each time.

Take `NCCCn1cc(-c2ccccc2CCN)c2cc(CN3CCN(Cc4ccccc4Cl)CC3)ccc21` [C131, HCl]: the EC50 in the assay on NCI-H460 and in the assay with MIA PaCa-2 was ≤ 5 µM in each case.

Turning to `NCCCn1cc(-c2ccccc2CN)c2cc(CN3CCN(Cc4c(Cl)cccc4Cl)CC3)ccc21` [C161; HCl], the EC50 in the assay on NCI-H460 and with MIA PaCa-2 was ≤ 5 µM throughout.

On to `NC1(C(=O)NCCCn2cc(-c3ccc(OC(F)(F)F)cc3)c3cc(CN4CCN(Cc5c(Cl)cccc5Cl)CC4)cnc32)CCNCC1` [C174; HCl], for which the EC50 in the assay on NCI-H460 and in the assay on MIA PaCa-2 was ≤ 5 µM in each case.

For `CC(C)(C)OC(=O)N1CCC(N)(C(=O)NCCCn2cc(-c3ccc(OC(F)(F)F)cc3)c3cc(CN4CCN(Cc5c(Cl)cccc5Cl)CC4)cnc32)CC1` [C175; Formic Acid], the results for the EC50 in the assay with NCI-H460 and in the assay on MIA PaCa-2 were ≤ 5 µM and 5 to 10 µM, respectively.

In the case of `O=C(NCCCn1cc(-c2ccc(OC(F)(F)F)cc2)c2cc(CN3CCN(Cc4c(Cl)cccc4Cl)CC3)cnc21)C1CNCCN1` (stereo not shown) [C176; HCl], the EC50 with NCI-H460 and in the assay on MIA PaCa-2 was ≤ 5 µM each time.

Take `NCCCn1cc(-c2ccc(OC(F)(F)F)cc2)c2cc(CN3CCN(Cc4c(Cl)cccc4Cl)CC3)cnc21` [C177; HCl]: the EC50 with NCI-H460 and in the assay on MIA PaCa-2 was ≤ 5 µM in each case.

Consider `NCCCn1cc(-c2ccc(OC(F)(F)F)cc2CN)c2cc(CN3CCN(Cc4ccc5c(c4)OCO5)CC3)ccc21` [C302; HCl], for which the EC50 in the assay with NCI-H460 and with MIA PaCa-2 was ≤ 5 µM each time.

For `NCCCn1cc(-c2ccc(OC(F)(F)F)cc2CN)c2cc(CN3CCN(Cc4ccc5c(c4)OCCO5)CC3)ccc21` [C303; HCl], the EC50 in the assay on NCI-H460 and with MIA PaCa-2 was ≤ 5 µM in each case.
